What was measured:
[1] = test system: C. difficile spores (ATCC #43596); test: Hamster C. difficile infection (CDAD) protection model; type: in vivo, Syrian golden hamsters; details: oral 0.5 mg/kg once daily for 5 days (MET 70 mg/kg three times daily for 5 days)
Method: Syrian golden hamsters were pretreated with 10 mg/kg clindamycin subcutaneously 24 hours before bacterial challenge. An inoculum of 20 C. difficile spores (ATCC #43596) in sterile saline was administered orally. Treatment was initiated 4 hours post-inoculation with dH2O, metronidazole (MET), vancomycin (VAN), or a compound of the present invention. Oral dosing regimens for VAN and compounds of Formula I were 0.5 mg/kg once daily for 5 days. MET was administered at 70 mg/kg three times daily for 5 days. CDAD was confirmed as the cause of death by observations at necropsy, including wet tail and/or macroscopic cecal alterations. The % protection provided by each therapy tested was calculated at 1 and 21 days post-dosing.

[2] = test system: Enterococcus faecalis EFS.201 (ATCC 49452); type: cell-based; details: ATCC 49452
Outline: (§1)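 Broth microdilution per CLSI M7-A7 in Mueller Hinton broth supplemented with 50 mg/L calcium, 5×10^5 bacteria per well, 2-fold compound dilutions, DMSO ≤1%. Plates incubated 18-20 hours at 37° C with aeration (200 rpm); MIC (μg/mL) is the lowest concentration giving no visible turbidity.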

[3] = test system: Enterococcus faecalis EFS.312, Daptomycin resistant mutant (EFA); type: cell-based; details: MHBc with 50 mg/L calcium, 18-20 hours at 37° C.
Outline: as §1

[4] = test system: Enterococcus faecium EFM.14 (ATCC 6569); type: cell-based; details: ATCC 6569
Outline: as §1

[5] = test system: Enterococcus faecium EFM.384, Daptomycin resistant mutant (14-A); type: cell-based; details: MHBc with 50 mg/L calcium, 18-20 hours at 37° C.
Outline: as §1

[6] = test system: Staphylococcus aureus SAU.278, Daptomycin resistant mutant (D10); type: cell-based; details: MHBc with 50 mg/L calcium, 18-20 hours at 37° C.
Outline: as §1

[7] = test system: Staphylococcus aureus SAU.399 (ATCC 43300), Methicillin and Oxacillin Resistant; type: cell-based; details: ATCC 43300
Outline: as §1

[8] = test system: Staphylococcus aureus SAU.42 (ATCC 29213); type: cell-based; details: ATCC 29213
Outline: as §1

SMILES	Mean % Protection 1 Day Post Dosing [1]	Mean % Protection 21 Days Post Dosing [1]	Efs201 MIC [2]	Efs312 MIC [3]	Efm14 MIC [4]	Efm384 MIC [5]	Sa278 MIC [6]	Sa399 MIC [7]	Sa42 MIC [8]	C. diff MIC90 (Clostridium difficile)
CN[C@H](CC(C)C)C(=O)N[C@H]1C(=O)N[C@@H](CC(N)=O)C(=O)N[C@H]2C(=O)N[C@H]3C(=O)N[C@H](C(=O)N[C@H](C(=O)O)c4cc(O)cc(O)c4-c4cc3ccc4O)[C@H](O)c3ccc(c(Cl)c3)Oc3cc2cc(c3O[C@@H]2O[C@H](CO)[C@@H](O)[C@H](O)[C@H]2O[C@H]2C[C@](C)(N)[C@H](O)[C@H](C)O2)Oc2ccc(cc2Cl)[C@H]1O [Vancomycin, vancomycin, reference compound]	90%	62%								
Cc1ncc([N+](=O)[O-])n1CCO [Metronidazole, 2-methyl-5-nitro-1H-imidazole-1-ethanol, reference compound]	100%	0%								
CCCCc1ccc(CC(=O)N[C@@H](Cc2c[nH]c3ccccc23)C(=O)N[C@H](CC(N)=O)C(=O)N[C@@H](CC(=O)O)C(=O)N[C@@H]2C(=O)NCC(=O)N[C@@H](CCCN)C(=O)N[C@@H](CC(=O)O)C(=O)N[C@H](C)C(=O)N[C@@H](CC(=O)O)C(=O)NCC(=O)N[C@H](CO)C(=O)N[C@@H]([C@H](C)CC(=O)O)C(=O)N[C@@H](CC(=O)c3ccccc3N)C(=O)O[C@@H]2C)cc1 [Compound 44]			8 µg/mL	>32 µg/mL	16 µg/mL	>32 µg/mL	4 µg/mL	4 µg/mL	4 µg/mL	8.00 µg/mL
CCCCCCCc1csc(C(=O)N[C@@H](Cc2c[nH]c3ccccc23)C(=O)N[C@H](CC(N)=O)C(=O)N[C@@H](CC(=O)O)C(=O)N[C@@H]2C(=O)NCC(=O)N[C@@H](CCCN)C(=O)N[C@@H](CC(=O)O)C(=O)N[C@H](C)C(=O)N[C@@H](CC(=O)O)C(=O)NCC(=O)N[C@H](CO)C(=O)N[C@@H]([C@H](C)CC(=O)O)C(=O)N[C@@H](CC(=O)c3ccccc3N)C(=O)O[C@@H]2C)c1 [Compound 43, N-(4-heptylthiophene-2-carbonyl)-L-tryptophyl-D-asparaginyl-L-α-aspartyl-L-threonylglycyl-L-ornithyl-L-α-aspartyl-D-alanyl-L-α-aspartylglycyl-D-seryl-(3R)-3-methyl-L-α-glutamyl-(αS)-α,2-diamino-γ-oxobenzenebutanoic acid (13→4)-lactone]			1 µg/mL	32 µg/mL	1 µg/mL	16 µg/mL	1 µg/mL	0.5 µg/mL	0.125 µg/mL	2 µg/mL
CC(C)Cc1ccc(C(C)C(=O)N[C@@H](Cc2c[nH]c3ccccc23)C(=O)N[C@H](CC(N)=O)C(=O)N[C@@H](CC(=O)O)C(=O)N[C@@H]2C(=O)NCC(=O)N[C@@H](CCCN)C(=O)N[C@@H](CC(=O)O)C(=O)N[C@H](C)C(=O)N[C@@H](CC(=O)O)C(=O)NCC(=O)N[C@H](CO)C(=O)N[C@@H]([C@H](C)CC(=O)O)C(=O)N[C@@H](CC(=O)c3ccccc3N)C(=O)O[C@@H]2C)cc1 (single isomer, unassigned) [45 isomer I]			>32 µg/mL	>32 µg/mL	>32 µg/mL	>32 µg/mL	>32 µg/mL	8 µg/mL	8 µg/mL	32 µg/mL

From patent US20150337013A1, “NOVEL ANTIBACTERIAL AGENTS FOR THE TREATMENT OF GRAM POSITIVE INFECTIONS” (priority 2008, published 2015)
